Experimental data taken from the METLIN SMRT retention time set (Domingo-Almenara et al. 2019).

Assay: gradient 5% acetonitrile 3 min, to 50% in 2 min, to 85% in 15 min, held 3 min, 100 µL/min
Conditions: column: Zorbax Extend-C18 2.1 x 50 mm; eluents: water / acetonitrile, 0.1% formic acid
In short: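 Pure standards were run in mixtures of ~100 molecules by HPLC coupled to a quadrupole time-of-flight mass spectrometer. The column was a Zorbax Extend-C18 (2.1 × 50 mm, 1.8 μm) at 100 μL/min, with water and acetonitrile each containing 0.1% formic acid, in positive and negative ionization mode. Dead and dwell volumes were 40 μL and 900 μL. Retention time was taken from computationally picked adduct peaks, each manually inspected, with data collected over 3 months.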

SMILES | RP-LC retention time [s]
C=C1C(=O)O[C@@H]2[C@H]3O[C@]3(C)CC/C=C(/C)CC[C@@H]12 | 972
Cc1ccc(CN2CC(=O)N3CCc4c([nH]c5ccccc45)C3(C)C2=O)cc1 (stereo not drawn) | 1020
CCC(CC)CN1CCC(n2c(C)cnc2-c2cccnc2)C1 (stereo not drawn) | 545
CCc1ccc(CN2C(=O)CN(S(C)(=O)=O)CC2(C)C(=O)NCc2ccccc2)cc1 (stereo not drawn) | 868
CC(C)c1ccc(S(=O)(=O)N2CCC3(CC2)c2nccn2CCN3C)cc1 | 720
O=C(c1cccc2[nH]cc(CN3CCCC3)c12)N1CCN(c2ccccc2)CC1 | 706
Fc1ccc(F)c(-c2nc(-c3ccc4c(c3)ncn4CCN3CCCC3)no2)c1 | 624
CCN1CCN(c2cc(C)c3cc(NC(=S)NC4CCCC4)ccc3n2)CC1 | 572
CCCn1ccc2sc(C)c(C(=O)N3CCN(c4ccc(OC)cc4)CC3)c2c1=O | 762
CCOc1ccc(C(=O)NCc2c(-c3ccccc3)nc3sc(CC)nn23)cc1 | 943
CC1CCc2[nH]nc(C(=O)NC3CC3)c2C1 (stereo not drawn) | 683
COC(=O)c1ccc(C2CC(=O)NC3=C2C(=O)CC(c2ccc(F)cc2)C3)cc1 (stereo not drawn) | 820
Cc1cc(C)cc(NC(=O)N2CCCC(Cn3c(C)nc4cccnc43)C2)c1 (stereo not drawn) | 671
Cc1[nH]nc(-c2ccc(S(=O)(=O)NC(C)C)o2)c1C | 729
CS(=O)(=O)N(Cc1cccnc1)C1CN(Cc2ccc(F)c(F)c2)C1 | 571
CC(C)CC(=O)Nc1ccc(-n2cnc(C(=O)N3CCCC(C)C3)c2)nc1 (stereo not drawn) | 756
Cc1cc(C)cc(Oc2nccn3c(=O)n(CC(=O)NCc4ccco4)nc23)c1 | 1210
O=C(Cc1ccccc1F)N1CCCn2nc(-c3cccs3)cc2C1 | 875
COc1ccc(-c2nc(C)c(C(=O)O)s2)cc1OC | 730
COC(=O)c1cc(S(=O)(=O)N2CCCC2C(=O)NCc2ccccc2C)cn1C (stereo not drawn) | 846
Cc1cc2nc(C(F)(F)F)c(=O)n(C(C)C(=O)NCCN3CCOCC3)c2cc1C (stereo not drawn) | 683
CCOc1ccccc1-c1csc(NC(=O)Cc2csc(COc3cc(C)ccc3C)n2)n1 | 1360

SMILES | RP-LC retention time [s]
Cc1ccc(CNC(=O)N2CCC3(CC2)NC(=O)c2cccc(Cl)c2N3)cc1 | 773
CCOc1ccc(NS(=O)(=O)c2cc(C(=O)N3CCN(c4ccccc4)CC3)n[nH]2)cc1 | 883
CCOc1ccc(N2CCn3c2nn(Cc2cccc(C(F)(F)F)c2)c(=O)c3=O)cc1 | 915
COc1ccc(NC(=O)C2CCN(S(=O)(=O)c3cn(C)cn3)CC2)c(OC)c1 | 666
CCCNC(=O)C1CCCN(c2ccc(SCC(=O)Nc3ccc(OC)cc3)nn2)C1 (stereo not drawn) | 647
COC(=O)c1ncn2c1C(=O)N(Cc1ccc(F)cc1)C(C)(C(=O)NCc1ccccc1)C2 (stereo not drawn) | 714
Cc1sc(C)c(S(=O)(=O)N2CCCC2)c1-c1cc(C(F)(F)F)on1 | 1130
O=C(Nc1cccc(F)c1)Nc1ccc2nncn2c1 | 686
O=C(C1CCN(c2cnc3nccnc3c2)CC1)N1CCC2(CC1)OCCO2 | 620
Cc1cccc(NS(=O)(=O)c2c(C)sc(C)c2-c2cc(C(F)(F)F)on2)c1 | 1180
Cc1cc(C)n(-c2ccc(C(=O)NC3CCCC3)cn2)n1 | 885
CC(C)c1noc(COC2CCCN(C(=O)NCc3ccccc3)C2)n1 (stereo not drawn) | 780
CCCN(C(=O)Nc1ccccc1[N+](=O)[O-])c1nc(-c2ccccc2)cs1 | 1400
Cc1ccc(F)cc1NC(=O)CSc1nc(N2CCCCC2)nc2ccccc12 | 778
Cn1cnc(S(=O)(=O)N2CCC(C(=O)Nc3ccccc3)CC2)c1 | 675
O=C(CSc1ccc(N2CCCC(C(=O)NC3CC3)C2)nn1)NCc1cccs1 (stereo not drawn) | 593
Cc1nnc2cc(N3CCN(C(=O)Nc4ccc(F)c(Cl)c4)CC3)cnn12 | 658
CCCn1nc(C)cc1CN(C)C(=O)c1cn2ccccc2n1 | 591
CCOc1ccccc1CNC(=O)c1ccc2c(c1)NC(=O)C1CCCCN21 (stereo not drawn) | 876
CCOC(=O)c1[nH]c(C)c(CCC(=O)N2CCCC(C(=O)NCc3cc(OC)ccc3OC)C2)c1C (stereo not drawn) | 799
CS(=O)(=O)N(Cc1ccncc1)C1CN(C(=O)C2(c3ccccc3)CC2)C1 | 610
O=C1C(N2CCN(S(=O)(=O)c3cc(F)cc(F)c3)CC2)CCN1Cc1ccccn1 (stereo not drawn) | 601

SMILES | RP-LC retention time [s]
COc1cccc(N2C=C(C(=O)N3CCCC3)S(=O)(=O)c3ccc(F)cc32)c1 | 819
Cc1cc(C)cc(NC(=O)COc2cc(C)nc(N3CCN(c4ccccc4)CC3)n2)c1 | 915
Cc1ccc(-c2ncccc2CNS(=O)(=O)c2cccc(F)c2)cc1 | 713
O=C(Cn1cccc1-c1nc(-c2ccc(Cl)cc2)cs1)NCCCN1CCOCC1 | 612
CCN1CCN(c2cc(C(=O)O)c3cc(NS(=O)(=O)c4cccc(F)c4)ccc3n2)CC1 | 600
CCc1ccc(S(=O)(=O)N2C[C@@H](F)C[C@H]2C(=O)N2CCCCC2)cc1 | 866
CCNC(=O)C1CCCN(c2nc3ncn(CC(=O)NCc4ccc(C)cc4)c(=O)c3s2)C1 (stereo not drawn) | 716
O=C(NC1CCCCC1)C1CCN(S(=O)(=O)c2ccc(-c3noc(C4CC4)n3)cc2)CC1 | 928
COCc1noc([C@@H]2CC(F)(F)CN2C(=O)c2nccn2C)n1 | 716
CCOC(=O)c1nc(N2CCN(c3cccc(C(F)(F)F)c3)CC2)c2ccccc2n1 | 1070
O=C(Cc1ccc(Cl)cc1)N1CCN(c2nnc3ccccn23)CC1 | 663
CC(=O)N(Cc1nn(C)c2c1CN(Cc1ccc(OCC(N)=O)cc1)CC2)c1ccccc1 | 585
CCc1ccc(NC(=O)N2CCCC(C)(C(=O)NCc3ccc(F)cc3)C2)cc1 (stereo not drawn) | 972
O=C(Nc1ccc(F)cc1)C1(c2cccs2)CCOCC1 | 798
Cc1ccc(C2C(S(=O)(=O)c3ccc(C)cc3)=C(O)C(=O)N2Cc2ccco2)cc1 (stereo not drawn) | 976
Cc1ccc(C)c(NC(=O)COc2nc(C)nc3ccccc23)c1 | 754
CC(=O)N1CCN(C(=O)[C@@]23CCCC[C@H]2N(CCC(C)C)C(=O)CC3)CC1 | 662
O=C(CN1CCCCC1c1nc(-c2ccc(F)cc2)no1)NCc1cccs1 (stereo not drawn) | 1020
CCCn1cc(CCNS(=O)(=O)c2c(C)noc2C)c2cccnc21 | 779
O=C(c1ccc2nc[nH]c2c1)N1CCN(c2cc(-c3cccs3)[nH]n2)CC1 | 594
CNC(=O)[C@@H]1CN(S(=O)(=O)c2ccc(Cl)s2)C[C@H]1c1nc(C)no1 | 758
CCN(Cc1ccc(OC)cc1)Cc1cc(=O)n2ccccc2n1 | 585

SMILES | RP-LC retention time [s]
CCC1(CC)NC(=O)N(CC(=O)Nc2ccc(C(=O)OC)cc2)C1=O | 671
O=C1CCN(Cc2ccc3c(c2)CCO3)CCCCCCN1 | 586
Cc1cccc(N2CCN(C(=O)COc3ccc(NC(=O)C4CC4)cn3)CC2)c1 | 754
Cc1noc(C)c1CCNC(=O)CCCn1c(=O)c2cccn2c2ccc(Br)cc21 | 803
COc1ccc2c(c1)c(N1CCCC1=O)c(C(=O)Nc1ccc(F)cc1)n2C | 952
CC(C)NC(=O)N1CCCN(S(=O)(=O)C(C)C)CC1 | 649
COc1cccc(-c2cc(C3CCN(C(=O)NC4CCCC4)CC3)[nH]n2)c1 | 790
COc1ccccc1NC(=O)C(=O)c1ccc[nH]1 | 908
CCCNC(=O)C1CCCN(c2nc3ncn(CC(=O)NCc4ccccc4)c(=O)c3s2)C1 (stereo not drawn) | 669
Cc1cc(=O)n(CC(=O)Nc2cc(F)ccc2F)c(N2CCOCC2)n1 | 698
COc1cc(OC)cc(C(=O)N2CCn3cnnc3C2)c1 | 578
CC(C)c1cccc(NC(=O)Cn2ccc3sccc3c2=O)c1 | 878
O=C1NC(C(=O)Nc2cccc(Cl)c2)Cn2cccc21 (stereo not drawn) | 721
COc1ccc(CNC(=O)Cn2c(=O)cc(-c3nc(C)no3)c3ccccc32)cc1OC | 746
CCN1CCN(c2cc(C)c3cc(NC(=O)COc4ccccc4)ccc3n2)CC1 | 609
COc1ccc(NC(=O)N2CCN(CCn3c(C(F)(F)F)nc4cccnc43)CC2)cc1 | 624
CCOc1ccc(CNC(=O)C2CCN(S(=O)(=O)c3cn(CC)cn3)CC2)cc1OC | 676
COc1ccc2[nH]cc(CCNC(=O)c3cc(Cl)ccc3OC)c2c1 | 883
Cc1noc(/C=C\c2ccc(S(=O)(=O)N3CCN(c4ccccn4)CC3)cc2)c1NC(=O)C1CC1 | 661
O=C(Nc1ccccc1)C1CCc2nc(N3CCCCC3)ncc2C1 (stereo not drawn) | 745
O=C(Cn1cnc2nc(N3CCCC(C(=O)NC4CC4)C3)sc2c1=O)Nc1ccc(F)c(F)c1 (stereo not drawn) | 705
O=C1[C@H](Cc2ccc(O)cc2)N2C(=O)CCN(C(=O)NCc3ccccc3)[C@H]2CN1Cc1cccc2ccccc12 | 847
